Assay results taken from ChEMBL document CHEMBL3758081, “Synthesis and biological evaluation of new naphthalene substituted thiosemicarbazone derivatives as potent antifungal and anticancer agents” (Eur J Med Chem, 2016).
Values after ≈ are worked out from the molar mass of the structure shown.

Legend:
Candida albicans = assay: Antifungal activity against Candida albicans ATCC-90028 after 48 hrs by broth microdilution method; assay type: functional; settings: ATCC-90028, 48 h
[1] = Genotoxicity in Salmonella typhimurium TA1535/pSK1002 assessed as induction ratio at 5 mg/ml after 2 hrs by umuC assay in absence of Sprague-Dawley rat liver S9 fraction; assay type: toxicity, organism-based; settings: salmonella enterica subsp. enterica serovar typhimurium
Salmonella typhimurium [2] = assay: Mutagenicity in Salmonella typhimurium TA98 at 1.25 mg/ml after 48 hrs by Ames MPF assay in presence of Sprague-Dawley rat liver S9 fraction; assay type: toxicity, organism-based; settings: salmonella enterica subsp. enterica serovar typhimurium, s9, 48 h
Salmonella typhimurium [3] = assay: Mutagenicity in Salmonella typhimurium TA100 at 5 mg/ml after 48 hrs by Ames MPF assay in presence of Sprague-Dawley rat liver S9 fraction; assay type: toxicity, organism-based; settings: salmonella enterica subsp. enterica serovar typhimurium, s9, 48 h
Salmonella typhimurium [4] = assay: Mutagenicity in Salmonella typhimurium TA100 at 0.156 mg/ml after 48 hrs by Ames MPF assay in absence of Sprague-Dawley rat liver S9 fraction; assay type: toxicity, organism-based; settings: salmonella enterica subsp. enterica serovar typhimurium
Aspergillus niger = assay: Antifungal activity against Aspergillus niger ATCC-1094 after 72 hrs by broth microdilution method; assay type: functional; settings: ATCC-1094, 72 h
Salmonella typhimurium [5] = assay: Mutagenicity in Salmonella typhimurium TA100 at 2.5 mg/ml after 48 hrs by Ames MPF assay in presence of Sprague-Dawley rat liver S9 fraction; assay type: toxicity, organism-based; settings: salmonella enterica subsp. enterica serovar typhimurium, s9, 48 h
Salmonella typhimurium [6] = assay: Mutagenicity in Salmonella typhimurium TA98 at 0.625 mg/ml after 48 hrs by Ames MPF assay in absence of Sprague-Dawley rat liver S9 fraction; assay type: toxicity, organism-based; settings: salmonella enterica subsp. enterica serovar typhimurium
[7] = Genotoxicity in Salmonella typhimurium TA1535/pSK1002 assessed as induction ratio at 0.3125 mg/ml after 2 hrs by umuC assay in presence of Sprague-Dawley rat liver S9 fraction; assay type: toxicity, organism-based; settings: salmonella enterica subsp. enterica serovar typhimurium
[8] = Genotoxicity in Salmonella typhimurium TA1535/pSK1002 assessed as induction ratio at 5 mg/ml after 2 hrs by umuC assay in presence of Sprague-Dawley rat liver S9 fraction; assay type: toxicity, organism-based; settings: salmonella enterica subsp. enterica serovar typhimurium
Candida tropicalis = assay: Antifungal activity against Candida tropicalis NRLL Y-12968 after 48 hrs by broth microdilution method; assay type: functional; settings: NRLL Y-12968, 48 h
Salmonella typhimurium [9] = assay: Mutagenicity in Salmonella typhimurium TA100 at 0.156 mg/ml after 48 hrs by Ames MPF assay in presence of Sprague-Dawley rat liver S9 fraction; assay type: toxicity, organism-based; settings: salmonella enterica subsp. enterica serovar typhimurium, s9, 48 h
Aspergillus parasiticus = assay: Antifungal activity against Aspergillus parasiticus NRRL 465 after 72 hrs by broth microdilution method; assay type: functional; settings: NRRL 465, 72 h
[10] = Genotoxicity in Salmonella typhimurium TA1535/pSK1002 assessed as induction ratio at 0.625 mg/ml after 2 hrs by umuC assay in absence of Sprague-Dawley rat liver S9 fraction; assay type: toxicity, organism-based; settings: salmonella enterica subsp. enterica serovar typhimurium
Salmonella typhimurium [11] = assay: Mutagenicity in Salmonella typhimurium TA98 at 5 mg/ml after 48 hrs by Ames MPF assay in presence of Sprague-Dawley rat liver S9 fraction; assay type: toxicity, organism-based; settings: salmonella enterica subsp. enterica serovar typhimurium, s9, 48 h
Aspergillus flavus = assay: Antifungal activity against Aspergillus flavus NRRL-980 after 72 hrs by broth microdilution method; assay type: functional; settings: NRRL-980, 72 h
Salmonella typhimurium [12] = assay: Genotoxicity in Salmonella typhimurium TA1535/pSK1002 assessed as growth factor at 0.156 mg/ml after 2 hrs by umuC assay in presence of Sprague-Dawley rat liver S9 fraction; assay type: toxicity, organism-based; settings: salmonella enterica subsp. enterica serovar typhimurium, s9, 2 h
[13] = Genotoxicity in Salmonella typhimurium TA1535/pSK1002 assessed as induction ratio at 1.25 mg/ml after 2 hrs by umuC assay in absence of Sprague-Dawley rat liver S9 fraction; assay type: toxicity, organism-based; settings: salmonella enterica subsp. enterica serovar typhimurium
[14] = Genotoxicity in Salmonella typhimurium TA1535/pSK1002 assessed as induction ratio at 0.156 mg/ml after 2 hrs by umuC assay in presence of Sprague-Dawley rat liver S9 fraction; assay type: toxicity, organism-based; settings: salmonella enterica subsp. enterica serovar typhimurium
Salmonella typhimurium [15] = assay: Mutagenicity in Salmonella typhimurium TA98 at 1.25 mg/ml after 48 hrs by Ames MPF assay in absence of Sprague-Dawley rat liver S9 fraction; assay type: toxicity, organism-based; settings: salmonella enterica subsp. enterica serovar typhimurium
Salmonella typhimurium [16] = assay: Genotoxicity in Salmonella typhimurium TA1535/pSK1002 assessed as growth factor at 0.625 mg/ml after 2 hrs by umuC assay in absence of Sprague-Dawley rat liver S9 fraction; assay type: toxicity, organism-based; settings: salmonella enterica subsp. enterica serovar typhimurium
Salmonella typhimurium [17] = assay: Mutagenicity in Salmonella typhimurium TA98 at 2.5 mg/ml after 48 hrs by Ames MPF assay in presence of Sprague-Dawley rat liver S9 fraction; assay type: toxicity, organism-based; settings: salmonella enterica subsp. enterica serovar typhimurium, s9, 48 h
Candida parapsilosis = assay: Antifungal activity against Candida parapsilosis NRLL Y-12696 after 48 hrs by broth microdilution method; assay type: functional; settings: Lodderomyces parapsilosis, NRLL Y-12696, 48 h
Fusarium solani = assay: Antifungal activity against Fusarium solani NRRL-13414 after 72 hrs by broth microdilution method; assay type: functional; settings: NRRL-13414, 72 h

SMILES	MIC (Candida albicans)	fold induction at 2 h, 5 mg/ml [1]	fold change (FC) (Salmonella typhimurium [2])	fold change (FC) (Salmonella typhimurium [3])	fold change (FC) (Salmonella typhimurium [4])	MIC (Aspergillus niger)	fold change (FC) (Salmonella typhimurium [5])	fold change (FC) (Salmonella typhimurium [6])	fold induction at 2 h, 0.3125 mg/ml [7]	fold induction at 2 h, 5 mg/ml [8]	MIC (Candida tropicalis)	fold change (FC) (Salmonella typhimurium [9])	MIC (Aspergillus parasiticus)	fold induction at 2 h, 0.625 mg/ml [10]	fold change (FC) (Salmonella typhimurium [11])	MIC (Aspergillus flavus)	Activity (Salmonella typhimurium [12])	fold induction at 2 h, 1.25 mg/ml [13]	fold induction at 2 h, 0.156 mg/ml [14]	fold change (FC) (Salmonella typhimurium [15])	further results
Fc1ccc(F)c(/C=N/NC(=S)Nc2cccc3ccccc23)c1	250 µg/mL (≈ 732 µM)	1.63	0.65	0.78	0.6	250 µg/mL (≈ 732 µM)	0.48	0	1.4	1.42	250 µg/mL (≈ 732 µM)	0.48	250 µg/mL (≈ 732 µM)	6	0.65	250 µg/mL (≈ 732 µM)	0.235	1.79	1.5	0.34	Activity (Salmonella typhimurium [16]): 0.14; fold change (FC) (Salmonella typhimurium [17]): 0.56; MIC (Candida parapsilosis): 250 µg/mL (≈ 732 µM); MIC (Fusarium solani): 250 µg/mL (≈ 732 µM)
Fc1cccc(/C=N/NC(=S)Nc2cccc3ccccc23)c1F	250 µg/mL (≈ 732 µM)	1.55	0.84	1.02	0.48	250 µg/mL (≈ 732 µM)	0.58	0	2.81	1.46	250 µg/mL (≈ 732 µM)	1.02	250 µg/mL (≈ 732 µM)	1.75	0.56	250 µg/mL (≈ 732 µM)	0.274	1.63	5.34	0.34	Activity (Salmonella typhimurium [16]): 0.137; fold change (FC) (Salmonella typhimurium [17]): 0.47; MIC (Candida parapsilosis): 250 µg/mL (≈ 732 µM); MIC (Fusarium solani): 250 µg/mL (≈ 732 µM)
